Values after ≈ are worked out from the molar mass of the structure shown. Active and inactive are the calls of the source. No cut-off for these calls is given here.

Here are results for ten compounds from ChEMBL document CHEMBL3044880, “Synthesis, NMR spectral studies and antimicrobial evaluation of some 2-(benzothiazol-2-yl)-1-(alkyl-2r,6c-diarylpiperidin-4-ylidine)hydrazine derivatives” (2013).

Holding throughout (format): functional
One test deals with Staphylococcus aureus. As to the kind of experiment: Antimicrobial activity against Staphylococcus aureus MTCC 96 assessed as growth inhibition after 24 hr by two-fold serial dilution method.
The subject of the next test is Klebsiella pneumoniae. Briefly: Antimicrobial activity against Klebsiella pneumoniae MTCC 2272 assessed as growth inhibition after 24 hr by two-fold serial dilution method. Conditions: MTCC 2272, 24 h.
The next test relates to Cryptococcus neoformans. Briefly: Antimicrobial activity against Cryptococcus neoformans assessed as growth inhibition after 72-96 hr by two-fold serial dilution method.
The next test concerns Fusarium oxysporum. Briefly: Antimicrobial activity against Fusarium oxysporum assessed as growth inhibition after 72-96 hr by two-fold serial dilution method.
For the next test, the system named is Candida albicans. As to the kind of experiment: Antimicrobial activity against Candida albicans assessed as growth inhibition by two-fold serial dilution method.
For the next test, the system named is Bacillus subtilis. As to the kind of experiment: Antimicrobial activity against Bacillus subtilis MTCC 121 assessed as growth inhibition after 24 hr by two-fold serial dilution method. The following applies: MTCC 121, 24 h.
For a further test, the system named is Pseudomonas aeruginosa. As to the kind of experiment: Antimicrobial activity against Pseudomonas aeruginosa MTCC 741 assessed as growth inhibition after 24 hr by two-fold serial dilution method. Conditions: MTCC 741, 24 h.
Another test has as its system Aspergillus niger. As to the kind of experiment: Antimicrobial activity against Aspergillus niger assessed as growth inhibition after 72-96 hr by two-fold serial dilution method.
A further test has as its system Escherichia coli. As to the kind of experiment: Antimicrobial activity against Escherichia coli MTCC 443 assessed as growth inhibition after 24 hr by two-fold serial dilution method. The following applies: MTCC 443, 24 h.
The test system of the next test is Aspergillus flavus. Briefly: Antimicrobial activity against Aspergillus flavus assessed as growth inhibition after 72-96 hr by two-fold serial dilution method.

Usually MIC stands for the lowest concentration found to suppress growth. Consider `CC1/C(=N/Nc2nc3ccccc3s2)CC(c2ccccc2)NC1c1ccccc1` (stereo not drawn), for which the MIC in the test on Staphylococcus aureus (MTCC 96, 24 h) came out at 200 µg/mL (≈ 485 µM); in the test with Klebsiella pneumoniae it was 100 µg/mL (≈ 242 µM); in the test on Cryptococcus neoformans, 200 µg/mL (≈ 485 µM); with Fusarium oxysporum, 200 µg/mL (≈ 485 µM); in the test on Candida albicans, 100 µg/mL (≈ 242 µM); in the test with Bacillus subtilis, 100 µg/mL (≈ 242 µM). The MIC in the test on Pseudomonas aeruginosa was 200 µg/mL (≈ 485 µM); with Aspergillus niger, 100 µg/mL (≈ 242 µM); with Escherichia coli, 25 µg/mL (≈ 60.6 µM).

Regarding `CC1/C(=N/Nc2nc3ccccc3s2)CC(c2ccccc2Cl)NC1c1ccccc1Cl` (stereo not drawn), in the test with Staphylococcus aureus, the MIC entry is “inactive”. In addition, the minimum inhibitory concentration (MIC) with Klebsiella pneumoniae was 100 µg/mL (≈ 208 µM); in the test on Cryptococcus neoformans it was 100 µg/mL (≈ 208 µM); in the test with Fusarium oxysporum, 100 µg/mL (≈ 208 µM); in the test with Aspergillus flavus, 200 µg/mL (≈ 415 µM); with Candida albicans, 200 µg/mL (≈ 415 µM); in the test on Bacillus subtilis it was 100 µg/mL (≈ 208 µM). Further, the MIC in the test with Pseudomonas aeruginosa amounted to 100 µg/mL (≈ 208 µM); with Aspergillus niger, 50 µg/mL (≈ 104 µM); in the test with Escherichia coli, 200 µg/mL (≈ 415 µM).

With `C[C@@H]1[C@H](O)[C@@H](C)/C=C/C=C/C=C/C=C/C=C/C=C/C=C/[C@H](O[C@@H]2O[C@H](C)[C@@H](O)[C@H](N)[C@@H]2O)C[C@@H]2O[C@](O)(C[C@@H](O)C[C@@H](O)[C@H](O)CC[C@@H](O)C[C@@H](O)CC(=O)O[C@H]1C)C[C@H](O)[C@H]2C(=O)O` [AMPHOTERICIN B], the MIC was 25 µg/mL (≈ 27.1 µM) with Cryptococcus neoformans; 25 µg/mL (≈ 27.1 µM) in the test with Fusarium oxysporum; 50 µg/mL (≈ 54.1 µM) with Aspergillus flavus; 25 µg/mL (≈ 27.1 µM) in the test with Candida albicans; 50 µg/mL (≈ 54.1 µM) in the test on Aspergillus niger.

Take `COc1ccc(C2C/C(=N\Nc3nc4ccccc4s3)C(C)C(c3ccc(OC)cc3)N2)cc1` (stereo not drawn): the MIC with Staphylococcus aureus (MTCC 96, 24 h) amounted to 100 µg/mL (≈ 212 µM); in the test with Klebsiella pneumoniae, 50 µg/mL (≈ 106 µM); with Aspergillus flavus, 100 µg/mL (≈ 212 µM); in the test with Candida albicans, 100 µg/mL (≈ 212 µM); in the test with Bacillus subtilis it was 200 µg/mL (≈ 423 µM); with Aspergillus niger, 200 µg/mL (≈ 423 µM). Besides, in the test with Escherichia coli, the MIC was 100 µg/mL (≈ 212 µM). Moreover, the MIC entry in the test with Cryptococcus neoformans and in the test on Fusarium oxysporum was “inactive” throughout.

For `CN[C@@H]1[C@H](O[C@H]2[C@H](O[C@H]3[C@H](O)[C@@H](O)[C@H](N=C(N)N)[C@@H](O)[C@@H]3N=C(N)N)O[C@@H](C)[C@]2(O)C=O)O[C@@H](CO)[C@H](O)[C@H]1O` [STREPTOMYCIN], the MIC came out at 50 µg/mL (≈ 86 µM) in the test with Staphylococcus aureus (MTCC 96, 24 h); 20 µg/mL (≈ 34.4 µM) with Klebsiella pneumoniae; 12.5 µg/mL (≈ 21.5 µM) with Bacillus subtilis; 50 µg/mL (≈ 86 µM) in the test on Pseudomonas aeruginosa; 50 µg/mL (≈ 86 µM) with Escherichia coli.

As for `CC1/C(=N/Nc2nc3ccccc3s2)CC(c2ccc(F)cc2)NC1c1ccc(F)cc1` (stereo not drawn), the MIC entry in the test with Staphylococcus aureus is “inactive”. The MIC amounted to 25 µg/mL (≈ 55.7 µM) with Klebsiella pneumoniae; 200 µg/mL (≈ 446 µM) with Cryptococcus neoformans; 100 µg/mL (≈ 223 µM) in the test on Fusarium oxysporum; 100 µg/mL (≈ 223 µM) in the test on Aspergillus flavus; 100 µg/mL (≈ 223 µM) in the test on Candida albicans; 100 µg/mL (≈ 223 µM) in the test on Bacillus subtilis. The MIC amounted to 200 µg/mL (≈ 446 µM) in the test with Pseudomonas aeruginosa and 100 µg/mL (≈ 223 µM) with Aspergillus niger.

On to `CC1/C(=N/Nc2nc3ccccc3s2)CC(c2ccc(Br)cc2)NC1c1ccc(Br)cc1` (stereo not drawn), for which, in the test on Staphylococcus aureus, the MIC result is “inactive”. Also, the MIC in the test on Klebsiella pneumoniae amounted to 100 µg/mL (≈ 175 µM); with Cryptococcus neoformans, 100 µg/mL (≈ 175 µM); in the test with Fusarium oxysporum, 50 µg/mL (≈ 87.7 µM); with Aspergillus flavus it was 200 µg/mL (≈ 351 µM); with Candida albicans, 200 µg/mL (≈ 351 µM); in the test on Bacillus subtilis, 200 µg/mL (≈ 351 µM). Moreover, the MIC in the test with Pseudomonas aeruginosa, in the test with Aspergillus niger and with Escherichia coli was 200 µg/mL (≈ 351 µM) in each case.

On to `CC1/C(=N/Nc2nc3ccccc3s2)CC(c2ccc(Cl)cc2)NC1c1ccc(Cl)cc1` (stereo not drawn), for which the MIC entry in the test on Staphylococcus aureus was “inactive”. Also, the MIC in the test with Klebsiella pneumoniae came out at 50 µg/mL (≈ 104 µM); in the test on Cryptococcus neoformans it was 200 µg/mL (≈ 415 µM); in the test with Fusarium oxysporum, 200 µg/mL (≈ 415 µM); with Aspergillus flavus it was 50 µg/mL (≈ 104 µM); in the test on Bacillus subtilis, 50 µg/mL (≈ 104 µM); in the test with Pseudomonas aeruginosa it was 100 µg/mL (≈ 208 µM). In addition, the MIC in the test with Aspergillus niger amounted to 100 µg/mL (≈ 208 µM); with Escherichia coli, 25 µg/mL (≈ 51.9 µM).

Consider `c1ccc(C2CC(=NNc3nc4ccccc4s3)CC(c3ccccc3)N2)cc1` (stereo not drawn), for which the MIC entry in the test with Staphylococcus aureus was “inactive”. For the same compound, the MIC with Klebsiella pneumoniae came out at 200 µg/mL (≈ 502 µM); in the test with Fusarium oxysporum, 200 µg/mL (≈ 502 µM); in the test on Aspergillus flavus it was 200 µg/mL (≈ 502 µM); in the test with Candida albicans it was 100 µg/mL (≈ 251 µM); in the test with Bacillus subtilis, 100 µg/mL (≈ 251 µM); with Pseudomonas aeruginosa, 200 µg/mL (≈ 502 µM). The MIC in the test on Aspergillus niger and in the test on Escherichia coli was 200 µg/mL (≈ 502 µM) throughout.

`CCC1/C(=N/Nc2nc3ccccc3s2)CC(c2ccccc2)NC1c1ccccc1` (stereo not drawn): the MIC result in the test on Staphylococcus aureus was “inactive”. The minimal inhibitory concentration (MIC) in the test with Klebsiella pneumoniae was found to be 50 µg/mL (≈ 117 µM); in the test on Cryptococcus neoformans, 200 µg/mL (≈ 469 µM); with Fusarium oxysporum it was 100 µg/mL (≈ 234 µM); in the test on Aspergillus flavus, 100 µg/mL (≈ 234 µM); in the test with Candida albicans it was 200 µg/mL (≈ 469 µM); in the test on Bacillus subtilis, 200 µg/mL (≈ 469 µM). The MIC in the test with Pseudomonas aeruginosa came out at 100 µg/mL (≈ 234 µM).
